Laboratory results reported in ChEMBL document CHEMBL4308841, “Synthesis, in vitro antiproliferative activity, and kinase inhibitory effects of pyrazole-containing diarylureas and diarylamides” (Eur J Med Chem, 2018).

Legend:
[1] = test system: K562; experiment: Growth inhibition of human K562 cells incubated for 48 hrs by sulforhodamine B assay; type: functional, cell-based; details: K562, 48 h
[2] = test system: NCI-H522; experiment: Growth inhibition of human NCI-H522 cells incubated for 48 hrs by sulforhodamine B assay; type: functional, cell-based; details: NCI-H522, 48 h
[3] = test system: COLO 205; experiment: Growth inhibition of human COLO205 cells incubated for 48 hrs by sulforhodamine B assay; type: functional, cell-based; details: COLO 205, 48 h
[4] = test system: SF-268; experiment: Growth inhibition of human SF268 cells incubated for 48 hrs by sulforhodamine B assay; type: functional, cell-based; details: SF-268, 48 h
[5] = test system: UACC-62; experiment: Growth inhibition of human UACC62 cells incubated for 48 hrs by sulforhodamine B assay; type: functional, cell-based; details: UACC-62, 48 h
[6] = test system: OVCAR-4; experiment: Growth inhibition of human OVCAR4 cells incubated for 48 hrs by sulforhodamine B assay; type: functional, cell-based; details: OVCAR-4, 48 h
[7] = test system: OVCAR-5; experiment: Growth inhibition of human OVCAR5 cells incubated for 48 hrs by sulforhodamine B assay; type: functional, cell-based; details: OVCAR-5, 48 h
[8] = test system: CCRF-CEM; experiment: Growth inhibition of human CCRF-CEM cells assessed as cell growth at 0.01 uM incubated for 48 hrs by sulforhodamine B assay relative to control; type: functional; details: read-out: Activity
[9] = test system: M14; experiment: Growth inhibition of human M14 cells assessed as cell growth at 0.01 uM incubated for 48 hrs by sulforhodamine B assay relative to control; type: functional; details: M14, 48 h, read-out: Activity
[10] = test system: UACC-62; experiment: Growth inhibition of human UACC62 cells assessed as cell growth at 0.01 uM incubated for 48 hrs by sulforhodamine B assay relative to control; type: functional; details: UACC-62, 48 h, read-out: Activity
[11] = test system: PC-3; experiment: Growth inhibition of human PC3 cells assessed as cell growth at 0.01 uM incubated for 48 hrs by sulforhodamine B assay relative to control; type: functional; details: PC-3, 48 h, read-out: Activity
[12] = test system: BT-549; experiment: Growth inhibition of human BT549 cells assessed as cell growth at 0.01 uM incubated for 48 hrs by sulforhodamine B assay relative to control; type: functional; details: BT-549, 48 h, read-out: Activity
[13] = test system: RPMI-8226; experiment: Growth inhibition of human RPMI8226 cells assessed as cell growth at 0.1 uM incubated for 48 hrs by sulforhodamine B assay relative to control; type: functional; details: RPMI-8226, 48 h, read-out: Activity
[14] = test system: U-251; experiment: Growth inhibition of human U251 cells assessed as cell growth at 0.1 uM incubated for 48 hrs by sulforhodamine B assay relative to control; type: functional; details: U-251, 48 h, read-out: Activity
[15] = test system: LOX IMVI; experiment: Growth inhibition of human LOXIMVI cells assessed as cell growth at 0.1 uM incubated for 48 hrs by sulforhodamine B assay relative to control; type: functional; details: read-out: Activity
[16] = test system: Malme-3M; experiment: Growth inhibition of human MALME-3M cells assessed as cell growth at 0.1 uM incubated for 48 hrs by sulforhodamine B assay relative to control; type: functional; details: read-out: Activity
[17] = test system: SK-MEL-2; experiment: Growth inhibition of human SK-MEL-2 cells assessed as cell growth at 0.1 uM incubated for 48 hrs by sulforhodamine B assay relative to control; type: functional; details: SK-MEL-2, 48 h, read-out: Activity
[18] = test system: OVCAR-4; experiment: Growth inhibition of human OVCAR4 cells assessed as cell growth at 0.1 uM incubated for 48 hrs by sulforhodamine B assay relative to control; type: functional; details: OVCAR-4, 48 h, read-out: Activity
[19] = test system: KM12; experiment: Growth inhibition of human KM12 cells assessed as cell growth at 1 uM incubated for 48 hrs by sulforhodamine B assay relative to control; type: functional; details: KM12, 48 h, read-out: Activity
[20] = test system: IGROV-1; experiment: Growth inhibition of human IGROV1 cells assessed as cell growth at 1 uM incubated for 48 hrs by sulforhodamine B assay relative to control; type: functional; details: IGROV-1, 48 h, read-out: Activity
[21] = test system: OVCAR-8; experiment: Growth inhibition of human OVCAR8 cells assessed as cell growth at 1 uM incubated for 48 hrs by sulforhodamine B assay relative to control; type: functional; details: OVCAR-8, 48 h, read-out: Activity
[22] = test system: CCRF-CEM; experiment: Growth inhibition of human CCRF-CEM cells assessed as cell growth at 100 uM incubated for 48 hrs by sulforhodamine B assay relative to control; type: functional; details: read-out: Activity
[23] = test system: HCT-116; experiment: Growth inhibition of human HCT116 cells assessed as cell growth at 100 uM incubated for 48 hrs by sulforhodamine B assay relative to control; type: functional; details: HCT-116, 48 h, read-out: Activity
[24] = test system: SF-268; experiment: Growth inhibition of human SF268 cells assessed as cell growth at 100 uM incubated for 48 hrs by sulforhodamine B assay relative to control; type: functional; details: SF-268, 48 h, read-out: Activity
[25] = test system: SNB-19; experiment: Growth inhibition of human SNB19 cells assessed as cell growth at 100 uM incubated for 48 hrs by sulforhodamine B assay relative to control; type: functional; details: SNB-19, 48 h, read-out: Activity
[26] = test system: U-251; experiment: Growth inhibition of human U251 cells assessed as cell growth at 100 uM incubated for 48 hrs by sulforhodamine B assay relative to control; type: functional; details: U-251, 48 h, read-out: Activity
[27] = test system: SK-MEL-28; experiment: Growth inhibition of human SK-MEL-28 cells assessed as cell growth at 100 uM incubated for 48 hrs by sulforhodamine B assay relative to control; type: functional; details: SK-MEL-28, 48 h, read-out: Activity
[28] = test system: UACC-62; experiment: Growth inhibition of human UACC62 cells assessed as cell growth at 100 uM incubated for 48 hrs by sulforhodamine B assay relative to control; type: functional; details: UACC-62, 48 h, read-out: Activity
[29] = test system: OVCAR-5; experiment: Growth inhibition of human OVCAR5 cells assessed as cell growth at 100 uM incubated for 48 hrs by sulforhodamine B assay relative to control; type: functional; details: OVCAR-5, 48 h, read-out: Activity
[30] = read-out: LC50 (the source's name)
[31] = read-out: pLC50 (the source's name) (converted)

For `COc1cc(Cl)cc(-c2nn(-c3cccc(NC(=O)Nc4cccc(C(F)(F)F)c4)c3)cc2-c2ccncc2)c1`, the GI50 ([1]; read-out: GI50) was 0.823 µM, the LC50 ([1]; read-out: LC50) was over 100 µM and the TGI ([1]; read-out: TGI) was 14.4 µM. For the same molecule, the GI50 ([1]; read-out: pGI50 (converted)) was 0.832 µM, the LC50 ([1]; read-out: pLC50 (converted)) was over 100 µM and the TGI ([1]; read-out: pTGI (converted)) was 14.5 µM. For the same molecule, the GI50 ([2]; read-out: GI50) was 0.445 µM, the CC50 [2, 30] was 10 µM and the TGI ([2]; read-out: TGI) was 25.1 µM. For the same molecule, the CC50 [2, 31] was 10.2 µM, the GI50 ([3]; read-out: GI50) was 1.53 µM and the CC50 [3, 30] was 65.5 µM. The TGI ([3]; read-out: TGI) was 31.7 µM, the GI50 ([3]; read-out: pGI50 (converted)) was 1.51 µM and the CC50 [3, 31] was 6.61 µM. It also gave a TGI ([3]; read-out: pTGI (converted)) of 3.16 µM, a GI50 ([4]; read-out: GI50) of 2.56 µM and a CC50 [4, 30] of over 100 µM. The TGI ([4]; read-out: TGI) was 17.1 µM, the GI50 ([4]; read-out: pGI50 (converted)) was 2.57 µM and the CC50 [4, 31] was over 100 µM. The TGI ([4]; read-out: pTGI (converted)) was 17 µM, the IC50 [5] was 1.47 µM and the GI50 ([5]; read-out: GI50) was 1.47 µM. It also gave a CC50 [5, 30] of 10.2 µM, a TGI ([5]; read-out: TGI) of 33.4 µM and a GI50 ([5]; read-out: pGI50 (converted)) of 1.48 µM. It also gave a CC50 [5, 31] of 10.2 µM, a TGI ([5]; read-out: pTGI (converted)) of 3.8 µM and a GI50 ([6]; read-out: GI50) of 2.54 µM. The CC50 [6, 30] was over 100 µM, the TGI ([6]; read-out: TGI) was 38.8 µM and the GI50 ([6]; read-out: pGI50 (converted)) was 2.51 µM. It also gave a CC50 [6, 31] of over 100 µM, a TGI ([6]; read-out: pTGI (converted)) of 38.9 µM and a GI50 ([7]; read-out: GI50) of 3.06 µM. For the same molecule, the CC50 [7, 30] was over 100 µM, the TGI ([7]; read-out: TGI) was 30.1 µM and the GI50 ([7]; read-out: pGI50 (converted)) was 3.09 µM. The CC50 [7, 31] was over 100 µM, the TGI ([7]; read-out: pTGI (converted)) was 30.2 µM and the growth at 0.01 µM [8] was 98%. It also gave a growth at 0.01 µM [9] of 98%, a growth at 0.01 µM [10] of 96% and a growth at 0.01 µM [11] of 91%. It also gave a growth at 0.01 µM [12] of 107%, a growth at 0.1 µM [13] of 98% and a growth at 0.1 µM [14] of 93%. It also gave a growth at 0.1 µM [15] of 97%, a growth at 0.1 µM [16] of 50% and a growth at 0.1 µM [17] of 55%. For the same molecule, the growth at 0.1 µM [18] was 98%, the growth at 1 µM [19] was 38% and the growth at 1 µM [20] was 85%. It also gave a growth at 1 µM [21] of 54%, a growth at 100 µM [22] of -18% and a growth at 100 µM [23] of -81%. For the same molecule, the growth at 100 µM [24] was -28%, the growth at 100 µM [25] was -13% and the growth at 100 µM [26] was -100%. For the same molecule, the growth at 100 µM [27] was -25%, the growth at 100 µM [28] was -82% and the growth at 100 µM [29] was -13%.
